The structures appear in SMILES notation.

The term EC50 denotes the midpoint of the concentration-response curve.

The target in the test is T1, human TLR7 (Homo sapiens, UniProt Q9NYK1).
T1 construct: host or cells: HEK-Blue hTLR7 (HEK293-derived reporter cells)
T1 sequence (Q9NYK1 27-1049): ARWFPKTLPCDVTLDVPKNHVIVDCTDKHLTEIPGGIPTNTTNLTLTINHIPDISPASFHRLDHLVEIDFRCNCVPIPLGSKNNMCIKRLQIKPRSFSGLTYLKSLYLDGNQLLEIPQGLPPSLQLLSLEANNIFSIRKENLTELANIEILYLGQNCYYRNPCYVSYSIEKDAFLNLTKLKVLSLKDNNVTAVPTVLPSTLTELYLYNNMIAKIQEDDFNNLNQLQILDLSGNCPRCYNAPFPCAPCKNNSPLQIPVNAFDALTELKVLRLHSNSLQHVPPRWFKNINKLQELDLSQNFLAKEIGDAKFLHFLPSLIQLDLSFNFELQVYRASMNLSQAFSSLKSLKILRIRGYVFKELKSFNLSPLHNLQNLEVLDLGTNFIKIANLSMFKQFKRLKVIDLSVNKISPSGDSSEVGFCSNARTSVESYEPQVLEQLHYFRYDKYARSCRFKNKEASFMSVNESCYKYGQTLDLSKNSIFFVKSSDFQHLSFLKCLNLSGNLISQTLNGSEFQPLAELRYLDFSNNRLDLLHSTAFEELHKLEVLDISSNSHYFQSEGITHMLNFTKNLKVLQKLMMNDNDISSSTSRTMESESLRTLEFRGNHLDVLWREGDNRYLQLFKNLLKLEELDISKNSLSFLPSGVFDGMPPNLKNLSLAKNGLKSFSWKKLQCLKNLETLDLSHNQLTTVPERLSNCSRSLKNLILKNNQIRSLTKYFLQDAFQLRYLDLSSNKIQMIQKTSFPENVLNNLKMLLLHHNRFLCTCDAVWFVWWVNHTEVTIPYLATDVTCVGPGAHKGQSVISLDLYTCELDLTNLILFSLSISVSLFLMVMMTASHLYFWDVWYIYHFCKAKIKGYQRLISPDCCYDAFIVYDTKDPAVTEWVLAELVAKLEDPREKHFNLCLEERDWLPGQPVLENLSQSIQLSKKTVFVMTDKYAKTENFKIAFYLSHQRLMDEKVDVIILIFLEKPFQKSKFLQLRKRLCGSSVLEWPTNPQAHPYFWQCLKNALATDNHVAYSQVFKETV
In words: Agonistic activity on human TLR7 in HEK-Blue hTLR7 cell line (QUANTI-Blue reporter). Format: cell-based. The conditions noted are these: HEK-Blue hTLR7 cells, 16-22 h incubation, absorption at 630 nm; read-out: EC50 value of the agonistic effect on human TLR7. The procedure:
The TLR7 agonistic activity of the compounds of the invention in HEK-Blue™ hTLR7 cell line with stable expression of human TLR7 were assayed using the following method: • 1. Weighed the test compounds and prepared stock solutions with DMSO (Sigma) at a concentration of 10 mM. […] The highest concentration was 1 mM. • 2. The test compounds and DMSO control were diluted 10-fold in DPBS buffer (Gibco) and then added to a 96-well cell culture plate (Corning) at a volume of 20 μL/well. • 3. HEK-Blue™ hTLR7 cells (Invivogen) were digested with cell separation solution (Gibco), and counted (TC-20 cell counter, Bio-rad). Cells were diluted to 4.4E5/ml using DMEM cell medium (Gibco). Added the cells to a 96-well cell culture plate at a volume of 180 μL/well. The cells were incubated for 16-22 h at 37° C. in a 5% CO2 incubator. • 4. Prepared QUANTI-Blue detection reagent (Invivogen), and added into a new 96-well plate at a volume of 180 μL/well. Twenty μL of cell culture supernatant was transferred from the cell culture plate and added to the 96-well plate and incubated at 37° C. for 1-3 hours. • 5. Neo2 multifunctional microplate reader (Bio-Tek) was used to measure the optical absorption at 630 nm, and the EC50 was calculated by GraphPad Prism.
The agonistic effect of the compounds of the invention on human TLR7 can be determined by the above experiments, and the measured EC50 value is shown in Table 1.
As for `Nc1nc2nc3c1[nH]c(=O)n3Cc1cc(c3c(c1)CCNC3)CCCCCO2` [Compound I-13], the EC50 is 28 nM. For `Nc1nc2nc3c1[nH]c(=O)n3Cc1cc(c3c(c1)CN(C1CCNCC1)CC3)CCCCCO2` [Compound I-40] the value was 280 nM; for `CN1Cc2c3cc(cc2C1=O)Cn1c(=O)[nH]c2c(N)nc(nc21)OCCC=CC3` [Compound I-4], 5 nM.

For `Nc1nc2nc3c1[nH]c(=O)n3Cc1cc(c3c(c1)CCC(C(=O)O)O3)CC=CCCO2` (stereo not shown) [Compound I-14], the EC50 is 38 nM. For `Nc1nc2nc3c1[nH]c(=O)n3Cc1cc(c3c(c1)C(=O)N(CC(=O)O)C3)C/C=C\CCO2` [Compound I-1] the value was 3 nM; for `Nc1nc2nc3c1[nH]c(=O)n3Cc1cc(c3c(c1)C(=O)N(CCN1CCCC1)C3)C/C=C/CCO2` [Compound I-7], 8 nM. To `Cc1cnc(N2CCc3c4cc(cc3C2)Cn2c(=O)[nH]c3c(N)nc(nc32)OCCCCC4)nc1` [Compound I-46] belongs 980 nM; to `CC(C)(C)N1Cc2c3cc(cc2C1=O)Cn1c(=O)[nH]c2c(N)nc(nc21)SCC/C=C\C3` [Compound I-52], 19 nM; to `Nc1nc2nc3c1[nH]c(=O)n3Cc1cc(c3c(c1)CNCC3)CCCCCCO2` [Compound I-28], 111 nM. For `CS(=O)(=O)CCN1CCc2c3cc(cc2C1)Cn1c(=O)[nH]c2c(N)nc(nc21)OCCCCC3` [Compound I-59], the EC50 amounted to 87 nM. To `Nc1nc2nc3c1[nH]c(=O)n3Cc1cc(c3c(c1)CN(C1CCC1)CC3)CCCCCS2(=O)=O` [Compound I-62] belongs 13 nM; to `Nc1nc2nc3c1[nH]c(=O)n3Cc1cc3c(c(c1)OC[C@@H]1CC[C@H]1CO2)CCNC3` [Compound I-29], 35 nM; to `Nc1nc2nc3c1[nH]c(=O)n3Cc1cc3c(c(c1)OC[C@@H]1CCC[C@H]1CO2)CCNC3` [Compound I-33], 140 nM.

As to `CC1(C(=O)O)Cc2cc3cc(c2C1)C/C=C\CCOc1nc(N)c2[nH]c(=O)n(c2n1)C3` (stereo not shown) [Compound I-21], the EC50 worked out at 42 nM. For `Nc1nc2nc3c1[nH]c(=O)n3Cc1cc(c3c(c1)CC(C(=O)O)O3)CC=CCCO2` (stereo not shown) [Compound I-16], the EC50 was 17 nM. On to `Nc1nc2nc3c1[nH]c(=O)n3Cc1cc(cc3c1CNCC3)OCCCCO2` [Compound I-66], for which the EC50 was 393 nM. On to `Nc1nc2nc3c1[nH]c(=O)n3Cc1cc(c3c(c1)CN(Cc1ccncc1)CC3)CCCCCO2` [Compound I-47], for which the EC50 came to 165 nM. Regarding `Nc1nc2nc3c1[nH]c(=O)n3Cc1cc(cc3c1OCC3)CCCCCO2` [Compound I-67], the EC50 stood at 316 nM.

As to `CN1CCC=CCc2cc(cc3c2CN(C(C)(C)C)C3=O)Cn2c(=O)[nH]c3c(N)nc1nc32` [Compound I-58], the EC50 was 1100 nM. For `Nc1nc2nc3c1[nH]c(=O)n3Cc1cc(c3c(c1)CCC(C(=O)O)O3)CCCCCO2` (stereo not shown) [Compound I-15] the value was 228 nM; for `Nc1nc2nc3c1[nH]c(=O)n3Cc1cc(c3c(c1)CN(CC(=O)O)CC3)C/C=C/CCO2` [Compound I-22], 15 nM.

In the case of `Nc1nc2nc3c1[nH]c(=O)n3Cc1cc(cc3c1CN(C1CCC1)CC3)OCCCCO2` [Compound I-68], the EC50 came to 25 nM.

With `Nc1nc2nc3c1[nH]c(=O)n3Cc1cc(c3c(c1)CNCC3)CCCCCO2` [Compound I-10], the EC50 worked out at 26 nM. For `Nc1nc2nc3c1[nH]c(=O)n3Cc1cc3c(c(c1)OCCCCO2)CCNC3` [Compound I-31] the value was 39 nM. As to `Nc1nc2nc3c1[nH]c(=O)n3Cc1cc(c3c(c1)CNCC3)C/C=C/CCO2` [Compound I-9], the EC50 is 9 nM. For `CS(=O)(=O)N1CCc2c3cc(cc2C1)Cn1c(=O)[nH]c2c(N)nc(nc21)OCCC=CC3` [Compound I-43] the value was 3 nM; for `Nc1nc2nc3c1[nH]c(=O)n3Cc1cc(c3c(c1)C(=O)N(CCN1CCCC1)C3)C/C=C\CCO2` [Compound I-6], 2 nM. To `Nc1nc2nc3c1[nH]c(=O)n3Cc1cc(c3c(c1)CCNC3)C/C=C/CCO2` [Compound I-12] belongs 8 nM.

(Values after US20240124486A1, “MACROCYCLIC TLR7 AGONIST, PREPARATION METHOD THEREFOR, PHARMACEUTICAL COMPOSITION AND USE THEREOF” (SHANGHAI VISONPHARMA CO., LTD., priority 2020, published 2024).)
